Laboratory results: EP0012729A1, “Therapeutic compositions containing as active compound a substituted acetic acid or its salt” ("IBIS" ISTITUTO BIOCHIMICO SPERIMENTALE S.p.A., priority 1978, dated 1980)

System: Wistar rats
Test: Choleretic activity in the rat, bile fistula method
Type: in vivo
Settings: for Peak choleresis time of appearance / Peak choleresis % increase / Duration index: 200 mg/kg p.o. (dose given for 1620 only); for Peak choleresis % increase: increase over controls as percentage of base choleresis; for Duration index: time for halving the maximum choleresis increase; for Flow: 200 mg/kg p.o.; for ml of bile flow ± s.e.: second series
Text: It is known that the primary effect of a choleretic agent is to increase the bile flow and the quantity of solid substances excreted with the bile. A good choleretic must provide this effect in a sufficiently intense and prolonged manner. In addition, as in the case of all drugs, it must have low acute toxicity and good general tolerability, but in particular must be free from toxic effects on the organ on which it is required to act, i.e. the liver, whether this is in a normal or pathological state. The analysis of the new product in comparison with the best known products for the same therapeutic use has therefore been focused on these aspects. The choleretic activity of the new product has been determined in the rat by using the bile fistula method. Wistar rats of both sexes and having a weight of between 180 and 240 g were used.
The animals, which were kept fasting for 12 hours but with free access to water, were narcotised by ethyl urethane in a dose of 1 g/kg by intra peritoneal or intramuscular injection.
After binding the animals to the retention bed, a median laparatomy was carried out, and when the bile duct had been isolated a cannula needle was inserted into it. A polythene tube was then inserted into those ani mals which were to receive the products intraduodenally, after which a su ture was carried out on the abdominal wall, and the bile was allowed to discharge for 30 minutes after inserting the cannula in the bile duct, so as to allow the discharge to become normal. The bile was then collec ted for one hour.
Having determined the volume of bile discharged during this first hour of collection (base volume), the products under examination were administered at the predetermined doses and by the predetermined methods. The bile excreted by the individual animals was then collected over each hour for a further six hours.
During the experiments, the animals were kept at ambient temperature of about 22°C, and at regular intervals of two hours received 10 ml/kg of physiological solution s.c.
The liquids were administered at a temperature of 37°C.
The bile flow and cholesterol excretion were determined on those bile fractions excreted by the animals over each hour starting from the base hour until the end of the experiment
The dry residue (R.So) was determined on the bile fraction excreted during the base hour and on the total bile fractions excreted during the sub sequent hours. For practical reasons, the determination of the dry residue and of the cholesterol (carried out by the Sperry & Webb method) were carried out on the pool of bile excreted by the entire group of animals subjected to the same treatment instead of on the bile fractions excreted by the individual animals (which was sometimes insufficient for determining the cholesterol).
In compiling the graphs, the differences between the choleresis in the treated animals and that in the controls was calculated over the considered time intervals, and expressed as a percentage of the base choleresis. For this calculation, the following formula was used: [formula] where Cn and C' represent the choleresis (in ml/kg/h for the bile flow, and in mg/kg/h for the dry residue) determined over the considered time interval for the group of treated animals and the group of controls respectively. Cb and C'b represent the base choleresis in the group of treated animals and group of controls respectively.
This index was calculated as the time for halving the maximum choleresis increase recorded under their effect.

dihydroxybutylether [Dihydroxydibutyl-ether]
Peak choleresis time of appearance: 1st hour | Peak choleresis % increase: 49% | Duration index: 45' | Flow (0 (base hour)): 3,36±0,19 ml/kg/h | Flow (1h): 5,10±0,23 ml/kg/h | Flow (2h): 3,79±0,18 ml/kg/h | Flow (3h): 3,08±0,15 ml/kg/h | Flow (4h): 2,68±0,15 ml/kg/h | Flow (5h): 1,97±0,05 ml/kg/h | Flow (6h): 1,77±0,11 ml/kg/h

CCC(C(=O)O)C1(O)CCC(c2ccccc2)CC1 (stereo not drawn) [α-(1-hydroxy--4-phenylcyclohexyl)butyric acid]
Peak choleresis time of appearance: 1st hour | Peak choleresis % increase: 105% | Duration index: 180' | Flow (0 (base hour)): 2,70±0,25 ml/kg/h | Flow (1h): 5,60±0,51 ml/kg/h | Flow (2h): 5,42±0,47 ml/kg/h | Flow (3h): 4,63±0,28 ml/kg/h | Flow (4h): 3,68±0,18 ml/kg/h | Flow (5h): 3,05±0,12 ml/kg/h | Flow (6h): 2,70±0,17 ml/kg/h | ml of bile flow ± s.e. (oral by gastric probe 50 mg/kg, 0 (base values)): 2,8±0,22 ml | ml of bile flow ± s.e. (oral by gastric probe 50 mg/kg, 1 h): 3,2±0,11 ml | ml of bile flow ± s.e. (oral by gastric probe 50 mg/kg, 2 h): 3,0±0,12 ml | ml of bile flow ± s.e. (oral by gastric probe 50 mg/kg, 3 h): 2,9±0,10 ml | ml of bile flow ± s.e. (oral by gastric probe 50 mg/kg, 4 h): 2,8±0,12 ml | ml of bile flow ± s.e. (oral by gastric probe 50 mg/kg, 5 h): 2,5±0,10 ml | ml of bile flow ± s.e. (oral by gastric probe 50 mg/kg, 6 h): 2,0±0,11 ml | ml of bile flow ± s.e. (oral by gastric probe 100 mg/kg, 0 (base values)): 2,6±0,17 ml | ml of bile flow ± s.e. (oral by gastric probe 100 mg/kg, 1 h): 3,7±0,13 ml | ml of bile flow ± s.e. (oral by gastric probe 100 mg/kg, 2 h): 3,6±0,14 ml | ml of bile flow ± s.e. (oral by gastric probe 100 mg/kg, 3 h): 3,4±0,11 ml | ml of bile flow ± s.e. (oral by gastric probe 100 mg/kg, 4 h): 3,0±0,11 ml | ml of bile flow ± s.e. (oral by gastric probe 100 mg/kg, 5 h): 2,9±0,13 ml | ml of bile flow ± s.e. (oral by gastric probe 100 mg/kg, 6 h): 2,1±0,13 ml
